Measurements published in ChEMBL document CHEMBL5518169, “Discovery of a 1,6-naphthyridin-4-one-based AXL inhibitor with improved pharmacokinetics and enhanced in vivo antitumor efficacy” (Eur J Med Chem, 2024).
pIC50: −log10 of the molar value. The source made the active and inactive calls. No cut-off for these calls is given here.

Experiments:
[1] = Antitumor activity against mouse BaF3/TEL-AXL cells xenografted in mouse assessed as tumor growth inhibition at 50 mg/kg, po administered for 7 days; type: functional; conditions: 168 h, time 7 day, read-out: TGI
[2] = Toxicity in mouse xenografted with mouse BaF3/TEL-AXL cells assessed as body weight loss at 50 mg/kg, po administered for 7 days; type: organism-based; conditions: in vivo, 168 h, time 7 day
[3] = molecular target: T1, Tyrosine-protein kinase receptor UFO (Homo sapiens, UniProt P30530)
T1 sequence (P30530 whole entry): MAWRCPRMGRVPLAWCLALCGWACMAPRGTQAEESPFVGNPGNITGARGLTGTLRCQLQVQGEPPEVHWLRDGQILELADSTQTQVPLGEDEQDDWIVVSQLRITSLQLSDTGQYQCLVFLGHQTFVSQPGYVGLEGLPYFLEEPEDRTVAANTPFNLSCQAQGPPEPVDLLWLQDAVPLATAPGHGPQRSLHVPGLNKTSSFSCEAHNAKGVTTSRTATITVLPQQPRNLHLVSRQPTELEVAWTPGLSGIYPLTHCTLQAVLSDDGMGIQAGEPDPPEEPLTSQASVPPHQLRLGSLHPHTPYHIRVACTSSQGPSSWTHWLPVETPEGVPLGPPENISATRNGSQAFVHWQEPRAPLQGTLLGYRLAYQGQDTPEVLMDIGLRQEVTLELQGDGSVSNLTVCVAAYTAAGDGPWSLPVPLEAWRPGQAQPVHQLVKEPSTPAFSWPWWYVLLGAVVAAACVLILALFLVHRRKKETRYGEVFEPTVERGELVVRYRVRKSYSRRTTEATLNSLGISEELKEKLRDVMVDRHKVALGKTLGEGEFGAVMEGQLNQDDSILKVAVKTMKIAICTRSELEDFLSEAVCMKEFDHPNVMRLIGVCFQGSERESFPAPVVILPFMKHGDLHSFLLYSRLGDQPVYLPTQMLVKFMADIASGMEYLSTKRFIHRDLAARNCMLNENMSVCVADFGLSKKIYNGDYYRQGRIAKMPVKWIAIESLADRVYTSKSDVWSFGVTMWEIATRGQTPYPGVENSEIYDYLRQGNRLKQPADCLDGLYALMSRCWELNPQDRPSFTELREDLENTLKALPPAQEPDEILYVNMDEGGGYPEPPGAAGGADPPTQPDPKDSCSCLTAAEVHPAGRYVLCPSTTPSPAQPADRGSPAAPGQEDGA
Description: Inhibition of AXL (unknown origin) by ELISA analysis

[4] = Metabolic stability in human liver microsomes assessed as half life preincubated with compound for 10 mins followed by NADPH addition and measured after 60 mins by LC-MS/MS analysis; type: ADME, Microsome; conditions: time 70 min
[5] = Metabolic stability in human liver microsomes assessed as parent compound remaining preincubated with compound for 10 mins followed by NADPH addition and measured after 60 mins by LC-MS/MS analysis; type: ADME, Microsome; conditions: time 70 min, read-out: Stability
[6] = Tmax in Sprague-Dawley rat at 3 mg/kg, po measured upto 24 hrs by LC-MS/MS analysis; type: ADME, organism-based; conditions: in vivo
[7] = Half life in Sprague-Dawley rat at 3 mg/kg, po measured upto 24 hrs by LC-MS/MS analysis; type: ADME, organism-based; conditions: in vivo
[8] = Cmax in Sprague-Dawley rat at 3 mg/kg, po measured upto 24 hrs by LC-MS/MS analysis; type: ADME, organism-based; conditions: in vivo
[9] = AUC (0 to infinity) in Sprague-Dawley rat at 3 mg/kg, po measured upto 24 hrs by LC-MS/MS analysis; type: ADME, organism-based; conditions: in vivo
[10] = MRT (0 to infinity) in Sprague-Dawley rat at 3 mg/kg, po measured upto 24 hrs by LC-MS/MS analysis; type: ADME, organism-based; conditions: in vivo
cells = conditions: Mus musculus, BaF3/TEL-AXL, 72 h
Description: Antiproliferative activity against mouse BaF3/TEL-AXL cells assessed as inhibition of cell proliferation incubated for 72 hrs by CCK-8 assay

MKN-45 = test: cells; conditions: Homo sapiens, MKN-45, 72 h
Description: Antiproliferative activity against human MKN-45 cells assessed as inhibition of cell proliferation incubated for 72 hrs by CCK-8 assay

[11] = molecular target: T2, Tyrosine-protein kinase receptor UFO (Mus musculus) (UniProt Q00993); test: Inhibition of AXL phosphorylation in mouse BaF3/TEL-AXL cells incubated for 2 hrs by Western blot analysis; type: cell-based; conditions: dose 2-500 nM
T2 sequence (whole entry): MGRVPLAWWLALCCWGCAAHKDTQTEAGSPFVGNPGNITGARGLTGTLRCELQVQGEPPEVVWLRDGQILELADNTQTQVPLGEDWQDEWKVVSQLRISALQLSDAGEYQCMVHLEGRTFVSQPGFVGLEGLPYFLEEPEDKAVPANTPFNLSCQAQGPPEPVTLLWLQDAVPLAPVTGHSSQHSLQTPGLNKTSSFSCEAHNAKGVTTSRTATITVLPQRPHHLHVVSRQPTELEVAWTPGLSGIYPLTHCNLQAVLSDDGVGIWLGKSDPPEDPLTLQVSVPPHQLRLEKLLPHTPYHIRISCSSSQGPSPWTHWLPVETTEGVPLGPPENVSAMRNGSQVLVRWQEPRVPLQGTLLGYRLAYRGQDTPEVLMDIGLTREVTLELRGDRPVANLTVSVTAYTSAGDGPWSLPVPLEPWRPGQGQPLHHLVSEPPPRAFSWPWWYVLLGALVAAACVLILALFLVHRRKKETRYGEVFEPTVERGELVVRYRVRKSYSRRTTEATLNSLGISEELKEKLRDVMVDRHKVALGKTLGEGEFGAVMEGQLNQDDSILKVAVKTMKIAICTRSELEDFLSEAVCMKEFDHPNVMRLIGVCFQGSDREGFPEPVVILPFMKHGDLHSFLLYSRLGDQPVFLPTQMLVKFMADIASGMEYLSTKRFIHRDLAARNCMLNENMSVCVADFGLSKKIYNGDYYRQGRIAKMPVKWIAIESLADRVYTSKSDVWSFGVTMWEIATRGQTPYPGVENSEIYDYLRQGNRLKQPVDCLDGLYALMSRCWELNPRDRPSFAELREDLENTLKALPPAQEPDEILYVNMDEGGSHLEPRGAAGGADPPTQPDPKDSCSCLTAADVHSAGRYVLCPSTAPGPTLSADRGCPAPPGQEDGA

[12] = molecular target: RAC-alpha serine/threonine-protein kinase (Mus musculus) (UniProt P31750); test: Inhibition of AKT phosphorylation in mouse BaF3/TEL-AXL cells incubated for 2 hrs by Western blot analysis; type: cell-based; conditions: dose 2-500 nM
RAC-alpha serine/threonine-protein kinase (Mus musculus), sequence (P31750 whole entry): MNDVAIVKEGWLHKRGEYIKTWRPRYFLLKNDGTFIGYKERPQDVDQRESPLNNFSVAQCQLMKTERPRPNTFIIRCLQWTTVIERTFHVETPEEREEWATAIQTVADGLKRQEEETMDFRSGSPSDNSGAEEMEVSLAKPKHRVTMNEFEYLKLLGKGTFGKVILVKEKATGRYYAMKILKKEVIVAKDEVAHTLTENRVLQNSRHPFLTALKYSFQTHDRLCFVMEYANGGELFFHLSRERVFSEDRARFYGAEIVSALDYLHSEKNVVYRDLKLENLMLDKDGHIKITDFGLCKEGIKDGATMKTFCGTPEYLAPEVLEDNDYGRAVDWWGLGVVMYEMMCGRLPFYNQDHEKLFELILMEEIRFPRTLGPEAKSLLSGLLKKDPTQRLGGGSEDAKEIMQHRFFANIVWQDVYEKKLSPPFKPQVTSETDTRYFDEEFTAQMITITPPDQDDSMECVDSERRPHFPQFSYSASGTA

[13] = Antitumor activity against mouse BaF3/TEL-AXL cells xenografted in mouse assessed as tumor growth inhibition at 25 mg/kg, po administered for 7 days; type: functional; conditions: 168 h, time 7 day, read-out: TGI
[14] = Antitumor activity against mouse BaF3/TEL-AXL cells xenografted in mouse assessed as tumor growth inhibition at 100 mg/kg, po administered for 7 days; type: functional; conditions: 168 h, time 7 day, read-out: TGI
BaF3/TEL-AXL = test: Antitumor activity against mouse BaF3/TEL-AXL cells xenografted in mouse assessed as tumor regression at 50 to 100 mg/kg, po administered for 7 days; type: functional, organism-based; conditions: dose 50-100 mg/kg, time 7.0 day
[15] = Toxicity in mouse xenografted with mouse BaF3/TEL-AXL cells assessed as body weight loss at 25 to 100 mg/kg, po administered for 7 days; type: organism-based; conditions: in vivo, 168 h, dose 25-100 mg/kg, time 7 day

| SMILES | inhibition in vivo at 50 mg/kg [1] [%] | Activity [2] | pIC50 [3] | half-life [4] [h] | remaining at 1 h [5] [%] | Tmax [6] [h] | half-life [7] [h] | Cmax [8] [ng/mL] | AUC(0-inf) [9] [ng·h/mL] | MRT inf [10] [h] | pIC50 (cells) | pIC50 (MKN-45) | inhibition [11] | inhibition [12] | inhibition in vivo at 25 mg/kg [13] [%] | inhibition in vivo at 100 mg/kg [14] [%] | Activity (BaF3/TEL-AXL) | Activity [15] |
| --- | --- | --- | --- | --- | --- | --- | --- | --- | --- | --- | --- | --- | --- | --- | --- | --- | --- | --- |
| Nc1nc(Nc2ccc3c(c2)CC[C@@H](N2CCCC2)CC3)nn1-c1cc2c(nn1)-c1ccccc1CCC2 [BEMCENTINIB] | 107 | Non-Toxic | – | – | – | – | – | – | – | – | – | – | – | – | – | – | – | – |
| CC(C)n1cc(C(=O)Nc2cc(F)c(-c3c[nH]c4ncnc(N)c34)cc2F)c(=O)c(-c2ccc(F)cc2)c1 | – | – | > 9.70 | – | – | – | – | – | – | – | – | – | – | – | – | – | – | – |
| CC(C)n1cc(-c2ccc(F)cc2)c(=O)c2c(Nc3ccc(-c4cn(C)c5ncnc(N)c45)c(F)c3)nccc21 | – | – | – | 0.765 | 47 | 1.5 | 3.82 | 187 | 1300 | 5.96 | 9.00 | < 7.00 | – | – | – | – | – | – |
| CC(C)n1cc(-c2ccc(F)cc2)c(=O)c2c(Nc3ccc(-c4cc(-c5cnn(C)c5)cnc4N)c(F)c3)nccc21 | 104 | – | – | 2.57 | 76.3 | 2 | 10.1 | 2910 | 59800 | 16.5 | > 9.00 | < 7.00 | Dose-Dependent Effect | Dose-Dependent Effect | 89.8 | 105 | Active | Non-Toxic |
